Laboratory results from patent publication EP3502102A1, “STING INHIBITORS” (ECOLE POLYTECHNIQUE FEDERALE DE LAUSANNE (EPFL), priority 2017, dated 2019).
Positions count from the first letter of the chain named.

Key:
[1] = biological target: T1, Flag-STING (Mus musculus, UniProt Q3TBT3); assay: Protein mass spectrometry of immunoprecipitated Flag-STING; type: binding; settings: Flag-STING; 1 µM, 30min
T1 construct: expressed in transfected cells; host or cells: HEK293T (lentiviral transduction, induced overnight)
T1 sequence (Q3TBT3 1-378): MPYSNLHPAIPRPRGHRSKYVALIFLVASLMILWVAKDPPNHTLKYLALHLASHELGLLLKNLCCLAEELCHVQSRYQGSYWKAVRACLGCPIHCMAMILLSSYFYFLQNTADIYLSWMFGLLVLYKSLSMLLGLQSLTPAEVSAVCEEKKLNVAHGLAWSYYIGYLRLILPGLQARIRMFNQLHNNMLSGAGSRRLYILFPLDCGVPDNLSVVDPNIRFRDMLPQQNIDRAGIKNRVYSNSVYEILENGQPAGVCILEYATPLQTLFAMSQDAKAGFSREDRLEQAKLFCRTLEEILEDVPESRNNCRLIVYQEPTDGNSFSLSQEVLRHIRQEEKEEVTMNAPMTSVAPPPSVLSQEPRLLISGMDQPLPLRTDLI

[2] = biological target: T2, Flag-STING (Mus musculus, UniProt Q3TBT3, C91S); assay: as above; type: binding; settings: Flag-STING C91S; 1µM
T2 construct: expressed in transfected cells; host or cells: HEK293T (lentiviral transduction, induced overnight)
T2 sequence (Q3TBT3 1-378 C91S): T1 sequence (Q3TBT3 1-378) with C91S

[3] = mouse, in vivo, ip
[4] = biological target: T3, TBK1 (Homo sapiens, UniProt Q9UHD2); assay: IFN-beta luciferase reporter in HEK293T cells transfected with TBK1; type: cell-based; settings: 0.01-5µM
T3 construct: expressed in transfected cells; host or cells: HEK293T
T3 sequence (Q9UHD2 1-729): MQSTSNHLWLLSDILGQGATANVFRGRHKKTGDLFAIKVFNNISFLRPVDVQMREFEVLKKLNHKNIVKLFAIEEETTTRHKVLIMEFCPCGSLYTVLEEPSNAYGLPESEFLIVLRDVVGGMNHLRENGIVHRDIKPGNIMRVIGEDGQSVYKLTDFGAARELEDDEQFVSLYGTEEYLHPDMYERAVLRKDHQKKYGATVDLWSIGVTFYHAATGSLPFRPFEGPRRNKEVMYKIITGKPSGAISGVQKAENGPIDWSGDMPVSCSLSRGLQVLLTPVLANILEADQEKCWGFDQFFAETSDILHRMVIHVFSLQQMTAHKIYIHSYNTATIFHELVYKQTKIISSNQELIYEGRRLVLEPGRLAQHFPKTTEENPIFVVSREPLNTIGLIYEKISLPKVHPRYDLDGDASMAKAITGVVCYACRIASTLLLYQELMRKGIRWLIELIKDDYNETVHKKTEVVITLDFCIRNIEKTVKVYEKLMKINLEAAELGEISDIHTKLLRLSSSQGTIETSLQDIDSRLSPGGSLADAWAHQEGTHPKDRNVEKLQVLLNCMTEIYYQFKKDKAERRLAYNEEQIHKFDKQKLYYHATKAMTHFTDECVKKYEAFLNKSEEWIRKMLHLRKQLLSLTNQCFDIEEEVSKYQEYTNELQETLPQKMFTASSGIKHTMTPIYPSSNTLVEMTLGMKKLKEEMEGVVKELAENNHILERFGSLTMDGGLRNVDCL

[5] = biological target: T4, STING (Mus musculus, UniProt Q3TBT3); assay: IFN-beta luciferase reporter in HEK293T cells transfected with STING, alone or with a cyclic dinucleotide synthase; type: cell-based; parameters: expressed in transfected cells; host or cells: HEK293T; settings: wild-type HEK293T; STING expressed alone or in conjunction with cdG-Syn; 0.01-5µM; 16 h
T4 sequence (Q3TBT3 1-378): T1 sequence (Q3TBT3 1-378)
Method: Reporter activity was measured 16 h after compound treatment. A nonlinear regression analysis was performed. […] Cytokine levels were normalized to DMSO-treated control cells. […] Nuclei were stained with DAPI. […] Depicted genes were measured by RT-qPCR. […] 16 h later Luciferase activity was measured. […] Flag-STING was immunoprecipitated and analysed by autoradiography.
HEK293T cells expressing murine STING with an N-terminal mCherry-tag ^28 were transfected using GeneJuice (Millipore) with a construct encoding for cyclic di-GMP synthase in conjunction with an IFN-• firefly luciferase reporter plasmid. 3 h after transfection cells were seeded in […] (Corning) coated with library compounds. For each compounds, a 40 nl volume was selected to obtain a concentration of 10 µM in the assay plates. The amount of DMSO in each well was normalised to 0.1%. After overnight treatment, cells were lysed in lysis buffer (25 mM Tris-phosphate (pH 7.8), 2 mM DTT, 2 mM 1,2-diaminocyclohexane-N,N,N',N'-tetraacetic acid, 10% glycerol, 1% Triton® X-100) for 20 min followed by the addition of firefly luciferase. Reporter activity was measured using a Tecan Infinite plate reader. The screen was performed using on ∼ 20.000 compounds from a chemically diverse compound collection available at the BSF core facility at EPFL.
In these cells, transient transfection of vectors encoding for cyclic di-GMP synthase (cdG-Syn) and an IFN-• reporter leads to robust induction of firefly luciferase activity. We used this system to perform a high-throughput chemical screen with a library of ∼ 20.000 small molecule compounds (Fig. 6b). To increase the selectivity of candidate compounds against the STING pathway, hits from the primary screen were counter-screened for their effect on RIG-I-driven activation of the IFN-• reporter. […] To further validate the two small molecules, we treated wild-type HEK293T cells with C-178 and C-176, in which STING was either expressed alone or in conjunction with cdG-Syn. […] We next conducted a limited structure-activity relationship (SAR) analysis. Since both C-178 and C-176 share a characteristic nitrofuran moiety, we prepared analogues of C-176/8 in which this structural motif was substituted (Fig. 1c).

Q: With `O=C(Nc1ccc(I)cc1)c1ccc([N+](=O)[O-])o1` [C-176, N-(4-iodophenyl)-5-nitro-2-furamide] as the molecule, how does the “covalent modification of STING, mass shift” value [1] read?
A: irreversibly modify STING

Q: What about the “covalent binding to STING-C91S” value [2] of the same molecule?
A: absence of covalent binding

Q: What about the serum half-life [3] of the same molecule?
A: short

Q: What about the “TBK1-driven IFN induction” value [4] of the same molecule?
A: neither RIG-I nor TBK1-driven IFN induction was affected

Q: What about the “half-maximal inhibitory concentration (IC50) values, IFN-• reporter activity” value [5] of the same molecule?
A: nanomolar
